Results taken from patent EP2711369A1, “Liposomes containing tetraether lipid derivatives” (Bernina Plus GmbH, priority 2012, dated 2014).

Tested on: Brattleboro rats
Assay: In vivo testing of liposomes: urine excretion after oral DDAVP
Details: oral by gavage, DDAVP 10 µg/kg body weight
Description: Liposomes composed of STEL-PC and cholesterol in a ratio of 1 : 2.5 with DDVAP encapsulated as active agent were studied in the Brattleboro model.
Treatment with exogenous vasopression restores normal urinary function and exerts a temporal antidiuretic effect.
Brattleboro rats were hold singly in metabolic cages with free access to tap water. DDAVP was administered orally by gavage at a dose of 10 µg/kg body weight either as free compound or in various formulations. Urine excretion was measured over 24 h in 1 h intervals using a fraction collector.

## 1-desamino-8-D-arginine vasopressin [free DDAVP]
  inhibition of urine excretion (duration): approximately 2 hours
